Here are results for one compound from US12358919B2, “Antibacterial compounds” (Universita' degli Studi di Siena, priority 2019, dated 2025).

Assay [1] relates to K. pneumoniae ATCC 13833. In words: Chequerboard analysis with polymyxin E1 (average FIC index). The assay is classed as cell-based, Klebsiella pneumoniae. The conditions noted are these: compound + polymyxin E1.
For assay [2], the system named is E. coli CCUG^T. The description is as above. The assay is classed as cell-based, Escherichia coli. The conditions noted are these: compound + polymyxin E1.
In assay [3] the test system is polymyxin E1-resistant Acinetobacter baumannii (strain N50) clinical isolate. The class given is cell-based. The conditions noted are these: A. baumannii N50 (colistin-resistant); compound + polymyxin E1. On the procedure: Growth inhibition or killing of bacteria was investigated using conventional methods widely described in the scientific literature. Parameters such as the Minimum Inhibitory Concentration (MIC) were determined as described in Clinical Laboratory Standard Institute (CLSI) document M07 “Methods for Dilution Antimicrobial Susceptibility Tests for Bacteria That Grow Aerobically, 11th Edition” (2018). Synergistic activity of the compounds described in the present specification were determined by measuring the variation of the MIC's compound in the absence and presence of a sub-inhibitory concentration of a suitable antibacterial agent, such as polymyxin E1. Furthermore, the Fractional Inhibitory Concentrations (FICs) were measured using a chequerboard analysis to determine the average FIC index (FICI), whose value is known to characterize the interaction between two compounds and/or drugs (≤0.5, synergistic interaction; >0.5 and <2, no interaction, additive effect; ≥2, antagonistic interaction). Furthermore, the selectivity of the compounds was investigated by measuring their cytotoxic effect on mammalian cell lines (e.g. HeLa cells).
“Chequerboard” method was used to further investigate the synergistic activity of pyrazolo[4,3-b]pyridin-6-carboxamides when this compounds are combined with polymyxin E1. […]

Assay [4] deals with Klebsiella pneumoniae ATCC 13833. In words: microbe, parasite or virus in culture. The settings on record: K. pneumoniae ATCC 13833. The class given is cell-based. In outline:
(§1)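 MICs were determined by CLSI M07 broth dilution, for each compound alone and with a fixed sub-inhibitory concentration of polymyxin E1 (colistin). Potentiation fold is the MIC alone divided by the MIC with polymyxin E.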

Assay [5] has as its system Acinetobacter baumannii ATCC 17978. Briefly: microbe, parasite or virus in culture. The class given is cell-based. The settings on record: A. baumannii ATCC 17978. In outline: as §1
Assay [6] has as its system Escherichia coli CCUG^T. In words: microbe, parasite or virus in culture. The class given is cell-based. The conditions noted are these: E. coli CCUG^T. In outline: as §1
The test system of assay [7] is Acinetobacter baumannii (N50 strain), multidrug-resistant clinical isolate resistant to polymyxin E1. In words: Time-kill curve analysis (bactericidal activity). The class given is cell-based. The conditions noted are these: compound 32 mg/L + polymyxin E1 2 mg/L. The method, then:
FIG. 1: bactericidal activity on Acinetobacter baumannii (N50 strain) of polymyxin E1, 2 mg/L (square); polymyxin E1, 2 mg/L+compound Ib 32 mg/L (triangles); control (circles).
Several methods were used to investigate the synergistic activity of the compounds, including (a) the determination of the MIC in the presence of a sub-inhibitory concentration of a suitable antibacterial agent, (b) the determination of the average FICI using a chequerboard analysis and (c) the time-kill curve analysis of a suitable agent (at a sub-inhibitory concentration) in the absence and presence of the pyrazolo[4,3-b]pyridin-6-carboxamide compound at a fixed concentration of 2 or 8 mg/L.
The kinetics of bacterial killing offers an additional mean to characterize the antibacterial activity of compounds, also in combination with other antimicrobial agents. Compounds or a combination thereof are defined as bactericides when the viable bacterial load is decreased by at least 3 log10 (EUCAST, cit.).
This analysis was carried with a multidrug-resistant Acinetobacter baumannii clinical isolate showing resistance to polymyxin E1. The time-kill curves were generated starting from a bacterial inoculum of 10^5 CFU/mL. Bacterial count was determined at several time intervals in the absence (control) or presence of 2 mg/L polymyxin E1 (corresponding to the resistance breakpoint, EUCAST, cit.) supplemented with 32 mg/L of compound Ib (FIG. 1).

Assay [8] deals with Streptococcus pyogenes ATCC 12344. Briefly: MIC, broth microdilution (direct antibacterial activity). The assay is classed as cell-based. The settings on record: ATCC12344, S. pyogenes ATCC 12344, compound alone, 18-24 h, read-out: MIC. The essentials: (§2)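 CLSI M07 broth microdilution in Mueller-Hinton broth, inoculum 5×10^5 CFU/mL, compound at 512 to 0.25 mg/L. Plates incubated 18-24 hours at 35±2 °C before MIC reading.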

The subject of assay [9] is Bacillus subtilis ATCC 6633. Described as above. The class given is cell-based. The settings on record: ATCC6633, B. subtilis ATCC 6633, compound alone, 18-24 h, read-out: MIC. The essentials: as §2
Assay [10] deals with Staphylococcus aureus ATCC 25923. The description is as above. The class given is cell-based. The conditions noted are these: ATCC25923, S. aureus ATCC 25923, compound alone, 18-24 h, read-out: MIC. In outline:
as §2

The test system of assay [11] is A. baumannii ATCC 17978. In words: Chequerboard analysis with polymyxin E1 (average FIC index). The assay is classed as cell-based, Acinetobacter baumannii. The settings on record: compound + polymyxin E1.
The mark [12] stands for this setting: ratio MICcompound/MICcompound+polymyxin E.
Setting [13] is: with 0.25xMIC polymyxin E1 (0.12 mg/L).

For the compound `CCCCn1c(=O)c(C(=O)NC23CC4CC(CC(C4)C2)C3)c(O)c2nn(C)cc21` [Ib, N-(Adamantan-1-yl)-4-(1-butyl)-4,5-dihydro-7-hydroxy-2-methyl-5-oxo-2H-pyrazolo[4,3-b]pyridin-6-carboxamide], the “Average FIC index” value in [1] was found to be 0.30; in [2], 0.26; in assay [3], 0.30; in assay [11], 0.29. The Potentiation fold was ≥64 in assay [4] (setting [12]), ≥128 in assay [5] (setting [12]) and ≥64 in assay [6] (setting [12]). Besides, the results for the “MIC in presence of colistin” value in assay [4] (setting [13]), in assay [5] (with 0.25xMIC polymyxin E1 (0.25 mg/L)) and in assay [6] (setting [13]) were 8 µg/mL, 4 µg/mL and 8 µg/mL, respectively. For the same compound, the MIC is > 512 µg/mL in assay [4] (Klebsiella pneumoniae, ATCC13833, compound alone, read-out: MIC); > 512 µg/mL in assay [5] (Acinetobacter baumannii, ATCC17978, compound alone, read-out: MIC); > 512 µg/mL in assay [6] (Escherichia coli, compound alone, read-out: MIC); 16 µg/mL in assay [8]; 32 µg/mL in assay [9]; 64 µg/mL in [10]. The “reduction in the bacterial viable count” value in assay [7] (after 30-60 min of incubation) was “more than 3 log 10”. In addition, in assay [7] (up to 24 hours), the “viable count at subsequent time intervals” value is “no viable could be detected”.
